Results from US20040048866A1 (priority 2002, published 2004).

Target: T1, α1 and β1 subunits of guanylate cyclase (sGC), expressed in Sf9 cells (Homo sapiens, UniProt Q02108+Q02153)
T1 construct: made in house; host or cells: Sf9 insect cells (baculovirus co-infection); high-speed supernatant used unpurified
T1 sequence (Q02108 1-690): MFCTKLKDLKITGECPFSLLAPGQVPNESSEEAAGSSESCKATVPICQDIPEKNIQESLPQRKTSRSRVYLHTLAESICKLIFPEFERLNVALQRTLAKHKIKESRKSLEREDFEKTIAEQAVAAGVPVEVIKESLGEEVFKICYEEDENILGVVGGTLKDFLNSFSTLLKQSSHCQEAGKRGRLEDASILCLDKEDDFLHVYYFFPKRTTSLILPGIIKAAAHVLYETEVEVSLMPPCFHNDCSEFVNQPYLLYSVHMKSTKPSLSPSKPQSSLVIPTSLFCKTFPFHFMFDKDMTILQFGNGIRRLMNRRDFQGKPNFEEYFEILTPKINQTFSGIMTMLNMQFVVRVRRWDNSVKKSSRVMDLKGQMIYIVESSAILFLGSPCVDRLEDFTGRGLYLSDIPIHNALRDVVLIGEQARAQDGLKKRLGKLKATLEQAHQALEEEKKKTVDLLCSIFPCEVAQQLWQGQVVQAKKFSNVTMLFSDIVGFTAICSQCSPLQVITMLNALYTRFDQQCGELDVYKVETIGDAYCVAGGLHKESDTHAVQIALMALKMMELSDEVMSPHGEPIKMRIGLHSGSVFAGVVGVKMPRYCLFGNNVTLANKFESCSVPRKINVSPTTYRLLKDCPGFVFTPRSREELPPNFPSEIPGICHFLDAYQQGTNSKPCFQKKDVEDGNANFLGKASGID
T1 sequence (Q02153 1-619): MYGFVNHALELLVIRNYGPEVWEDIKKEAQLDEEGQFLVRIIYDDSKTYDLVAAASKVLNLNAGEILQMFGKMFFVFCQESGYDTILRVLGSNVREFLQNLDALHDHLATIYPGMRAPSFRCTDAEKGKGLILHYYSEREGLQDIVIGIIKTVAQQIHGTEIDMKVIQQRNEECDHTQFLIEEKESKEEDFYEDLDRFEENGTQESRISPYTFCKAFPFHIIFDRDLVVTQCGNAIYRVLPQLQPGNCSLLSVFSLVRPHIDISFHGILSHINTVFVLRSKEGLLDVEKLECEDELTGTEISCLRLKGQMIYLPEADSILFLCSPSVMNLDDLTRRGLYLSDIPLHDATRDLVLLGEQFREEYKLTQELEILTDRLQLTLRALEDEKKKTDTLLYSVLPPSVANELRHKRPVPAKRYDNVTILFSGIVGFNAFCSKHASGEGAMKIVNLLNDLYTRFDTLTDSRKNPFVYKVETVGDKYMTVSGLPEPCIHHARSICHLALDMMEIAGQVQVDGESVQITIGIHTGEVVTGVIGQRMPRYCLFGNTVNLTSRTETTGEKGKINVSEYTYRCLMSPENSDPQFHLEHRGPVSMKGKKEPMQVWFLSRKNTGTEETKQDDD
Assay: Guanylate Cyclase Assay (formation of cyclic GMP from GTP)
Type: biochemical
Conditions: for Mean activation at 100 μM: (activity at 100 μM with 1 μM SNP − activity at 100 μM)/(activity of SNP at 1 μM − basal activity of sGC); for Mean efficacy at 100 μM with 1 μM of SNP, [% of YC-1]: compound at 100 μM with 1 μM sodium nitroprusside (SNP), normalized to 100 μM YC-1 (without SNP) as 100%; for Emax at 100 µM / Mean basal efficacy at 100 μM, [% of YC-1]: compound at 100 μM without SNP, normalized to activity of 100 μM YC-1 (without SNP) as 100%; for Emax at 100 µM: read-out: Mean basal efficacy at 100 μM, [% of YC-1]
Method: Sf9 cells were cultured in Sf-90011 medium supplemented with 10% (v/v) fetal calf serum at 28° C. to give a count of 6×10^5 cells/ml. The cells were then infected with a mixture of the virus stocks for the α1 and β1 subunits of guanylate cyclase at a multiplicity of infection of 0.1 pfu/cell. The cells were harvested 72 hours after infection and were pelleted by centrifugation. The resulting cell pellets were homogenized with Polytron homogenizer in 3 volumes of 20 mM Tris-HCl (pH 7.6) containing 1 mM EDTA, 5 mM dithiothreitol, 90 mM NaCl, 10% glycerol, and protease inhibitors mix (Roche Molecular Biochemicals). The homogenate was centrifuged at 50,000×g for 60 minutes and the supernatant was aliquotted and stored at −80° C.
Compounds of the present invention were dissolved in DMSO to make 100 mM and saved as stocks at −20° C. When compounds were tested, 10-fold concentrated solutions with 10% DMSO were prepared. 10 μl of 10-fold concentrated compound solutions were added to the reaction mixture total of 100 μl.
Guanylate cyclase activity was measured by the formation of cyclic GMP from GTP in a total volume of 100 μl. Guanylate cyclase-expressed Sf9 cell high-speed supernatant (Sf9 high-speed sup) was used as an enzyme source for the assay. The reaction mixture containing 0.1 μl enzyme of Sf9 high-speed sup, compound solution, 50 mM Tris-HCl (pH 7.6), 4 mM MgCl2, 0.5 mM IBMX, 15 mM creatine phosphate, 20 μg creatine phosphokinase, 0.1% BSA and 1 mM GTP were incubated at 37° C. for 15 minutes. After the reaction, 0.9 ml of 50 mM sodium acetate buffer (pH 5.8) was added followed by boiling for 3 minutes to stop the reaction. The solution was centrifuged at 3000 rpm for 15 minutes at room temperature and cyclic GMP in 20 μl of the resulting supernatant was measured according to the protocol of Amersham cyclic GMP enzymeimmunoassay system (Amersham, RPN 226).
Compounds of the present invention were tested at 100 μM with and without 1 μM of sodium nitroprusside (SNP). YC-1 was included as a standard for each assay. The data was normalized with the activity of 100 μM YC-1 (without SNP) as 100%. Mean basal efficacy, in Table 1, was expressed as a percentage of 100 μM YC-1 (without SNP).
The mean activation, in Table 1, was calculated based on the formula: (activity of compound of the present invention at 100 μM with 1 μM SNP)−(activity of compound of on at 100 μM)/(activity of SNP at 1 μM)−(basal activity of sGC).

SMILES	Mean activation at 100 μM	Mean efficacy at 100 μM with 1 μM of SNP, [% of YC-1]	Emax at 100 µM [%]	Mean basal efficacy at 100 μM, [% of YC-1]
CN(C)CCCNC(=O)c1ccc(Oc2nn(Cc3ccccc3)c3ccccc23)o1 [Example 5, 5-[(1-benzyl-1H-indazol-3-yl)oxy]-N-[3-(dimethylamino)propyl]-2-furamide]	1.7	65 % of YC-1	4	–
c1ccc(Cn2nc(Oc3ncccn3)c3ccccc32)cc1 [Example 12, 1-benzyl-3-(2-pyrimidinyloxy)-1H-indazole]	2.6	43 % of YC-1	-1	–
O=C(NCC(O)c1ccccc1)c1ccc(Oc2nn(Cc3ccccc3)c3ccccc23)o1 (centres unmarked) [Example 9, 5-[(1-benzyl-1H-indazol-3-yl)oxy]-N-(2-hydroxy-2-phenylethyl)-2-furamide]	1.6	13 % of YC-1	0	–
CN(C)CCCN1CCN(C(=O)c2ccccc2Oc2nn(Cc3ccccc3)c3ccccc23)CC1 [Example 17, N-[3-(4-{2-[(1-benzyl-1H-indazol-3-yl)oxy]benzoyl}-1-piperazinyl)propyl]-N,N-dimethylamine]	2.0	14 % of YC-1	4	–
CN(C)CCCNC(=O)c1ccccc1Oc1nn(Cc2ccccc2)c2ccccc12 [Example 18, 2-[(1-benzyl-1H-indazol-3-yl)oxy]-N-[3-(dimethylamino)propyl]benzamide]	1.5	10 % of YC-1	5	–
O=C(O)c1ccccc1Oc1nn(Cc2ccccc2)c2ccccc12 [Example 15, 2-[(1-benzyl-1H-indazol-3-yl)oxy]benzoic acid]	2.6	47 % of YC-1	4	–
O=C(NN1CCOCC1)c1ccccc1Oc1nn(Cc2ccccc2)c2ccccc12 [Example 25]	1.9	14 % of YC-1	–	4 % of YC-1
CC(CCCC(C)(C)O)NC(=O)c1ccc(Oc2nn(Cc3ccccc3)c3ccccc23)o1 (centres unmarked) [Example 8, 5-[(1-benzyl-1H-indazol-3-yl)oxy]-N-(5-hydroxy-1,5-dimethylhexyl)-2-furamide]	1.5	9 % of YC-1	0	–
O=C(NCCN1CCOCC1)c1ccc(Oc2nn(Cc3ccccc3)c3ccccc23)o1 [Example 10, 5-[(1-benzyl-1H-indazol-3-yl)oxy]-N-[2-(4-morpholinyl)ethyl]-2-furamide]	2.0	11 % of YC-1	1	–
c1ccc(Cn2nc(Oc3ccccn3)c3ccccc32)cc1 [Example 11, 1-benzyl-3-(2-pyridinyloxy)-1H-indazole]	2.8	70 % of YC-1	9	–
NC(=O)c1cccnc1Oc1nn(Cc2ccccc2)c2ccccc12 [Example 14, 2-[(1-benzyl-1H-indazol-3-yl)oxy]nicotinamide]	1.8	23 % of YC-1	0	–
CCCC(CO)NC(=O)c1ccc(Oc2nn(Cc3ccccc3)c3ccccc23)o1 (centres unmarked) [Example 7, 5-[(1-benzyl-1H-indazol-3-yl)oxy]-N-[1-(hydroxymethyl)butyl]-2-furamide]	3.1	25 % of YC-1	3	–
OCc1ccc(Oc2nn(Cc3ccccc3)c3ccccc23)o1 [Example 1, {5-[(1-benzyl-1H-indazol-3-yl)oxy]-2-furyl}methanol]	–	38 % of YC-1	9	–

Further lines, with some results ahead:

Mean activation at 100 μM	Mean efficacy at 100 μM with 1 μM of SNP, [% of YC-1]	Emax at 100 µM [%]	SMILES	Mean basal efficacy at 100 μM, [% of YC-1]
2.0	12 % of YC-1	1	O=C(NCC1CCCCC1O)c1ccccc1Oc1nn(Cc2ccccc2)c2ccccc12 (centres unmarked) [Example 26, 2-[(1-benzyl-1H-indazol-3-yl)oxy]-N-[(2-hydroxycyclohexyl)methyl]benzamide]	–
2.1	13 % of YC-1	2	O=C(NCC(O)c1ccccc1)c1ccccc1Oc1nn(Cc2ccccc2)c2ccccc12 (centres unmarked) [Example 22, 2-[(1-benzyl-1H-indazol-3-yl)oxy]-N-(2-hydroxy-2-phenylethyl)benzamide]	–
1.7	18 % of YC-1	-2	C(=Cc1ccccc1)Cn1nc(OCc2ccccc2)c2ccccc21 [Example 27, 3-(benzyloxy)-1-[3-phenyl-2-propenyl]-1H-indazole]	–
1.9	27 % of YC-1	6	O=C(O)c1ccc(Cn2nc(OCc3ccccc3)c3ccccc32)o1 [Example 28, 5-{[3-(benzyloxy)-1H-indazol-1-yl]methyl}-2-furoic acid]	–
2.2	15 % of YC-1	3	CN1CCCC1CCNC(=O)c1ccccc1Oc1nn(Cc2ccccc2)c2ccccc12 (centres unmarked) [Example 23, 2-[(1-benzyl-1H-indazol-3-yl)oxy]-N-[2-(1-methyl-2-pyrrolidinyl)ethyl]benzamide]	–
1.9	15 % of YC-1	5	CCCC(CO)NC(=O)c1ccccc1Oc1nn(Cc2ccccc2)c2ccccc12 (centres unmarked) [Example 21, 2-[(1-benzyl-1H-indazol-3-yl)oxy]-N-[1-(hydroxymethyl)butyl]benzamide]	–
2.7	224 % of YC-1	–	OCc1ccc(-c2nn(Cc3ccccc3)c3ccccc23)o1 [YC-1, reference compound]	100 % of YC-1
